Experimental data reported in patent publication US8702684B2, “Therapeutic hybrid implantable devices” (University of Miami, priority 2007, dated 2014).
“Also recorded” adds a separate entry of the source.

Assays:
Type in all cases: in vivo, rat
[1] = tested on: islet allografts in diabetic Lewis rats; experiment: Allogeneic islet graft survival in hybrid devices with local immunosuppression via micro-osmotic pump after weaning of systemic immunosuppression; details: local delivery by micro-osmotic pump 0.25 microL/h, dexamethasone phosphate 20 mg/L, loteprednol etabonate 0.2, 0.5, 10 mg/L, S1P receptor agonist 50 mg/L, controls rejected within 2 weeks of stopping systemic immunosuppression
Excerpt: Forty days before islet transplantation, the rats were implanted with a hybrid device of the invention with a plunger-containing device in the subcutaneous space as described in Example 3. Allogeneic islets (7,000 IE isolated from Wistar Furth rats) were then deposited into the neovascularized spaces of the hybrid devices, and after the transplantation, the animals' glucose levels were monitored daily as described in Examples 1 and 3. Post-transplantation, all animals received systemic immunosuppression treatment consisting of a single-dose induction treatment with T-cell depleting anti-lymphocyte serum (ALS) given intravenously on day −3. Starting on the day of islet transplantation, systemic maintenance immunosuppression with mycophenolic acid (MPA, 20 mg/kg) was given daily orally for at least three weeks. […] After at least two weeks of treatment, systemic immunosuppression was tapered and discontinued, while the local immunosuppression was maintained. For example, a typical weaning protocol of systemic treatment consisted of 25% reduction of MPA for two consecutive days over an 8-day period. FIG. 25 illustrates an experimental protocol of transient systemic immunosuppression combined with local extended immunotherapy.
Starting on the day of islet transplantation, animals also received local immunosuppression delivered using a micro-osmotic pump such as the Alzet® 100 microL volume, 2-week continuous infusion, 0.25 microL/h delivery rate model 1002 pump (Durect Corp., Cupertino, Calif.). Both the device and the pump were implanted in the dorsal region of the rodents, and they were connected via a PE tubing. Animals were divided into controls receiving either local saline or no treatment and treatment groups receiving various immunosuppressive agents such as, for example, dexamethasone phosphate (20 mg/L), loteprednol etabonate (0.2, 0.5, and 10 mg/L), or a sphingosine-1-phosphate (S1P) receptor agonist (50 mg/L) from the micro-osmotic pump.

[2] = tested on: already-engrafted syngeneic islet grafts in rats; experiment: Effect of systemic immunosuppression on already-engrafted functional syngeneic islet grafts; details: for animals returning to normoglycemia / recovering function after drug withdrawal: after 40 days treatment
[3] = tested on: syngeneic islet grafts in chemically-diabetic Lewis rats; experiment: Effect of systemic immunosuppression given from day of syngeneic islet transplantation on engraftment and graft function in hybrid devices; details: for animals achieving normoglycemia at later times after withdrawal of immunosuppression: fraction of animals in group, single-drug treatment; for graft function while under treatment: syngeneic islets 3,000 IEQ, treatment from day of transplantation for 40 days, controls normoglycemic long-term
Description: To assess the impact of conventional systemic immunosuppression on islet engraftment and function in prevascularized hybrid devices, we carried out syngeneic islet transplantation in chemically-diabetic Lewis rats that were treated with either rapamycin or tacrolimus (alone or in combination) as described in Example 3, starting from the day of islet transplantation, for 40 days. Control animals received no treatment.

| graft function under systemic immunosuppression administered for 40 days ([2]; already-engrafted graft, >=40 days post implantation) | animals returning to normoglycemia / recovering function after drug withdrawal ([2]; already-engrafted graft) | animals achieving normoglycemia at later times after withdrawal of immunosuppression [3] | animals displaying dysfunction while under treatment ([2]; fraction of animals, 40 days treatment of already-engrafted graft) | SMILES | allograft survival compared to control animals [1] | allograft survival compared to control animals ([1]; listed as dexametasone phosphate) | graft function while under treatment [3] |
| --- | --- | --- | --- | --- | --- | --- | --- |
|  |  |  |  | C[C@@H]1C[C@H]2[C@@H]3CCC4=CC(=O)C=C[C@]4(C)[C@@]3(F)[C@@H](O)C[C@]2(C)[C@@]1(O)C(=O)COP(=O)(O)O [dexamethasone phosphate] | clear extension of allograft survival | sizable extension of allograft survival |  |
| impaired graft function | ⅓ | ¼ |  | C=CC[C@@H]1/C=C(\C)C[C@H](C)C[C@H](OC)[C@H]2O[C@@](O)(C(=O)C(=O)N3CCCC[C@H]3C(=O)O[C@H](/C(C)=C/[C@@H]3CC[C@@H](O)[C@H](OC)C3)[C@H](C)[C@@H](O)CC1=O)[C@H](C)C[C@@H]2OC [tacrolimus] |  |  | only partial function or primary non-function; also recorded: only partial or primary non-function |
|  |  |  |  | CCOC(=O)O[C@]1(C(=O)OCCl)CC[C@H]2[C@@H]3CCC4=CC(=O)C=C[C@]4(C)[C@H]3[C@@H](O)C[C@@]21C [loteprednol etabonate] | clear extension of allograft survival; also recorded: sizable extension of allograft survival |  |  |
|  | returned to normoglycemia | ¼ | ⅓ | CO[C@H]1C[C@@H]2CC[C@@H](C)[C@@](O)(O2)C(=O)C(=O)N2CCCC[C@H]2C(=O)O[C@H]([C@H](C)C[C@@H]2CC[C@@H](O)[C@H](OC)C2)CC(=O)[C@H](C)/C=C(\C)[C@@H](O)[C@@H](OC)C(=O)[C@H](C)C[C@H](C)/C=C/C=C/C=C/1C [rapamycin, sirolimus] |  |  | only partial function or primary non-function; also recorded: only partial or primary non-function |
